Source: ChEMBL document CHEMBL5634134, “Design, synthesis, and biological evaluation of novel 4,4'-bipyridine derivatives acting as CDK9-Cyclin T1 protein-protein interaction inhibitors against triple-negative breast cancer” (Eur J Med Chem, 2023)
Calls of active or inactive are those of the source. The calls are words filed in the database; no cut-off is given here.

Tests used:
MDA-MB-231 [1] = assay: Inhibition of colony formation in human MDA-MB-231 cells assessed as reduction in colony number at >=111 nM incubated for 10 days by crystal violet staining based analysis relative to control; format: functional; details: time 10 day
MDA-MB-231 [2] = assay: Antiproliferative activity against human MDA-MB-231 cells assessed as inhibition of 3D tumor growth at 100 nM incubated for 10 days in presence of olaparib by confocal laser scanning microscopic analysis; format: functional, cell-based; details: time 10.0 day
MDA-MB-231 [3] = assay: Induction of apoptosis in human MDA-MB-231 cells transfected with shCDK9 assessed as reduction in Bcl-2 expression at 300 nM by Western blot analysis; format: functional, cell-based
[4] = target: Cyclin-dependent kinase 7/ cyclin H (Homo sapiens) (UniProt P51946+P50613); assay: Inhibition of Flag-tagged CDK7(unknown origin)/Cyclin H (unknown origin) transfected in HEK293T cells at 1 to 3 uM incubated for 8 hrs by co-immunoprecipitation assay; format: cell-based; details: dose 1-3 µM
[5] = Toxicity in mouse assessed as death rate at 1000 mg/kg, ip administered for 16 days relative to control; format: organism-based; details: in vivo, time 16 day, read-out: Activity
[6] = Cytotoxicity against human MRC5 cells assessed as inhibition of cell growth incubated for 72 hrs by MTT assay; format: toxicity, cell-based
MDA-MB-231 [7] = assay: Induction of apoptosis in human MDA-MB-231 cells assessed as early apoptotic cells at 111 nM incubated for 72 hrs by Annexin V-FITC/PI staining based flow cytometry analysis (reference value: 0.66 %); format: functional
4T1 [8] = assay: Antitumor activity against mouse 4T1 cells implanted in athymic BALB/c mouse assessed as reduction in tumor weight at 12.5 to 25 mg/kg, ip administered for 14 days; format: functional, organism-based; details: dose 12.5-25 mg/kg, time 14.0 day
MDA-MB-231 [9] = assay: Induction of apoptosis in human MDA-MB-231 cells assessed as early apoptotic cells at 1000 nM incubated for 72 hrs by Annexin V-FITC/PI staining based flow cytometry analysis (reference value: 0.66 %); format: functional
[10] = Toxicity in mouse assessed as lethal dose administered intraperitoneally for 16 days by Karber's method; details: in vivo, route ip, time 16 day
MDA-MB-231 [11] = assay: Induction of apoptosis in human MDA-MB-231 cells assessed as early apoptotic cells at 37 nM incubated for 72 hrs by Annexin V-FITC/PI staining based flow cytometry analysis (reference value: 0.66 %); format: functional
MDA-MB-231 [12] = assay: Synergistic antiproliferative activity against human MDA-MB-231 cells assessed as inhibition of cell growth incubated for 48 hrs in presence of varying concentrations of olaparib by MTT assay; format: functional, cell-based; details: dose 0.01-4 µM
MDA-MB-231 [13] = assay: Inhibition of colony formation in human MDA-MB-231 cells at 20 nM incubated for 10 days in presence of olaparib by crystal violet staining based analysis; format: functional, cell-based; details: time 10.0 day
MDA-MB-231 [14] = assay: Induction of apoptosis in human MDA-MB-231 cells assessed as viable cells at 111 nM incubated for 72 hrs by Annexin V-FITC/PI staining based flow cytometry analysis (reference value: 94.81 %); format: functional; details: read-out: Activity
[15] = Cytotoxicity against HK-2 cells assessed as inhibition of cell growth incubated for 72 hrs by MTT assay; format: toxicity, cell-based; details: human
MDA-MB-231 [16] = assay: Inhibition of cell invasion in human MDA-MB-231 cells incubated for 24 hrs by crystal violet staining based transwell matrix penetration assay; format: functional; details: dose 37-1000 nM
[17] = target: Cyclin-dependent kinase 12 (Homo sapiens) (UniProt Q9NYV4); assay: Binding affinity to CDK12 in human MDA-MB-231 cells asssesed as thermal stabilization at 1 uM incubated for 8 hrs under 45 to 65 degreeC by Western blot analysis; format: cell-based
MDA-MB-231 [18] = assay: Induction of apoptosis in human MDA-MB-231 cells assessed as viable cells at 333 nM incubated for 72 hrs by Annexin V-FITC/PI staining based flow cytometry analysis (reference value: 94.81 %); format: functional; details: read-out: Activity
4T1 [19] = assay: Antitumor activity against mouse 4T1 cells implanted in athymic BALB/c mouse assessed as increase in cleaved PARP at 12.5 to 25 mg/kg, ip administered once daily for 14 days by Western blot analysis; format: functional, organism-based; details: dose 12.5-25 mg/kg, time 14.0 day
[20] = MRT (0 to infinity) in Sprague-Dawley rat at 50 mg/kg, ip measured afer 24 hrs by LC-MS/MS analysis; format: ADME, organism-based; details: in vivo
[21] = Cytotoxicity against human L02 cells assessed as inhibition of cell growth incubated for 72 hrs by MTT assay; format: toxicity, cell-based
MDA-MB-231 [22] = assay: Induction of apoptosis in human MDA-MB-231 cells assessed as late apoptotic cells at 1000 nM incubated for 72 hrs by Annexin V-FITC/PI staining based flow cytometry analysis (reference value: 4.04 %); format: functional
4T1 [23] = assay: Antitumor activity against mouse 4T1 cells implanted in athymic BALB/c mouse assessed as tumor inhibition rate at 25 mg/kg, ip administered for 14 days relative to control; format: functional; details: 4T1, 336 h, time 14 day
MDA-MB-231 [24] = assay: Induction of apoptosis in human MDA-MB-231 cells assessed as necrotic cells at 37 nM incubated for 72 hrs by Annexin V-FITC/PI staining based flow cytometry analysis (reference value: 0.49 %); format: functional
MDA-MB-231 [25] = assay: Inhibition of colony formation in human MDA-MB-231 cells assessed as reduction in colony number incubated for 10 days by crystal violet staining based analysis; format: functional, cell-based; details: dose 12-1000 nM, time 10.0 day
MDA-MB-231 [26] = assay: Induction of apoptosis in human MDA-MB-231 cells assessed as necrotic cells at 1000 nM incubated for 72 hrs by Annexin V-FITC/PI staining based flow cytometry analysis (reference value: 0.49 %); format: functional
[27] = Cytotoxicity against human MCF-10A cells assessed as inhibition of cell growth incubated for 72 hrs by MTT assay; format: toxicity, cell-based
MDA-MB-231 [28] = assay: Inhibition of colony formation in human MDA-MB-231 cells at 20 nM incubated for 10 days by crystal violet staining based analysis; format: functional, cell-based; details: time 10.0 day
MDA-MB-231 [29] = assay: Antiproliferative activity against human MDA-MB-231 cells assessed as decrease in sphere size by measuring diameter at 100 nM incubated for 10 days in presence of olaparib by confocal laser scanning microscopy; format: functional; details: time 10 day
MDA-MB-231 [30] = assay: Induction of apoptosis in human MDA-MB-231 cells assessed as viable cells at 1000 nM incubated for 72 hrs by Annexin V-FITC/PI staining based flow cytometry analysis (reference value: 94.81 %); format: functional; details: read-out: Activity
[31] = Toxicity in athymic BALB/c mouse implanted with mouse 4T1 cells assessed as reduction in tolerance at 12.5 mg/kg, ip administered for 14 days; format: organism-based; details: in vivo, 336 h, time 14 day
[32] = Toxicity in mouse assessed as animal death at 62.5 to 500 mg/kg, ip administered for 16 days; format: organism-based; details: in vivo, 384 h, dose 62.5-500 mg/kg, time 16 day
MDA-MB-231 [33] = assay: Induction of apoptosis in human MDA-MB-231 cells transfected with shCDK9 assessed as increase in cleaved PARP expression at 300 nM by Western blot analysis; format: functional, cell-based
MDA-MB-231 [34] = assay: Inhibition of cell invasion in human MDA-MB-231 cells at 1000 nM incubated for 24 hrs by crystal violet staining based transwell matrix penetration assay; format: functional

Sequence of Cyclin-dependent kinase 12 (Homo sapiens) (Q9NYV4 whole entry, looked up): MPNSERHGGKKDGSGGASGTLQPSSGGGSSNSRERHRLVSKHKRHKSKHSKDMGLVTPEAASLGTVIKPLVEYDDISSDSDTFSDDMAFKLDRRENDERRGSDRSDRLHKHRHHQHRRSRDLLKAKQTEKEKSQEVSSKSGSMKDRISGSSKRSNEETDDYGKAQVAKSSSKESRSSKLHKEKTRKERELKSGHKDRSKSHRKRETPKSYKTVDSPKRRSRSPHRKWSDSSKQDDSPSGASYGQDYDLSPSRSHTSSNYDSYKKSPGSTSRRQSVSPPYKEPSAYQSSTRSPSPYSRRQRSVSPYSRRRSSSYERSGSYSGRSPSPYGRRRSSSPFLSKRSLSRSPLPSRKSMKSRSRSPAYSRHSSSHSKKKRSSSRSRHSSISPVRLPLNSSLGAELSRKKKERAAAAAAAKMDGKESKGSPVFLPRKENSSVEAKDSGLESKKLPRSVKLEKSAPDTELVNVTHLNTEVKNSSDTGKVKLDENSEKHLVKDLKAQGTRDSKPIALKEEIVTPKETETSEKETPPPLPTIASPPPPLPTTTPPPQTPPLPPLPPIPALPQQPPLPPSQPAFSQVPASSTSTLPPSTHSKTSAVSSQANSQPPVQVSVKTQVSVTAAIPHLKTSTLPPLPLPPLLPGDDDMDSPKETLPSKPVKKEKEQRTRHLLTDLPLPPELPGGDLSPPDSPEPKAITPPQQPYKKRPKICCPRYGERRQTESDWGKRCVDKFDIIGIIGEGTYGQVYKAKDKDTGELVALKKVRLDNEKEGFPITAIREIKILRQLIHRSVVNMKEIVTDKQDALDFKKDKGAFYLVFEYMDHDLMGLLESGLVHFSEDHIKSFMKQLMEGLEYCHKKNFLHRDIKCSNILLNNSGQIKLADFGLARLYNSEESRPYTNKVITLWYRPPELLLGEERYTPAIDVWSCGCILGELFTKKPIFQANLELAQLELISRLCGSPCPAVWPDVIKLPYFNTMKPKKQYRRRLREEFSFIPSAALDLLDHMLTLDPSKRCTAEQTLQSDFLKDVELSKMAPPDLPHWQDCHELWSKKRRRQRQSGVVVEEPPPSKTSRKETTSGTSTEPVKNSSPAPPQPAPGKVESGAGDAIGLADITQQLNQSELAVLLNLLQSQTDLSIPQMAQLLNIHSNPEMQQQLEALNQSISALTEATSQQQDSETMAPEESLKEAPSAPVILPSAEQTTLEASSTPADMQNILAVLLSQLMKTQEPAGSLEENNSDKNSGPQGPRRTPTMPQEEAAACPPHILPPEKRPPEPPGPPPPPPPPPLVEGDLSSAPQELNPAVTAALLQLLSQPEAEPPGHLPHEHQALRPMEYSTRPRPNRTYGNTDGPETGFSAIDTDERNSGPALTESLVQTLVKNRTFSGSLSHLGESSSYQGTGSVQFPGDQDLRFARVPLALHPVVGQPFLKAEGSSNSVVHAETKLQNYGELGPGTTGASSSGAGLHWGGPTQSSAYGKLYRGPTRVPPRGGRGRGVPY

Q: With COc1ccc(C(=O)Nc2cc(-c3ccnc(N4CCC(O)CC4)c3)ccn2)cc1 as the compound, how does the “inhibition (INH)” value (MDA-MB-231 [1]) read?
A: The value was roughly 100%.

Q: And the Activity (MDA-MB-231 [2])?
A: Its Activity is “Active”.

Q: And the Activity (MDA-MB-231 [3])?
A: Its Activity is “inactive”.

Q: What about the inhibition [4] of the same compound?
A: Its inhibition is “inactive”.

Q: And the mortality at 384 h [5]?
A: The mortality at 384 h was 100%.

Q: What about the IC50 at 72 h [6] of the same compound?
A: Its IC50 at 72 h is 335 nM.

Q: What about the Activity (MDA-MB-231 [7]) of the same compound?
A: The Activity was 21.3%.

Q: What about the Activity (4T1 [8]) of the same compound?
A: Its Activity is “Active”.

Q: And the Activity (MDA-MB-231 [9])?
A: Its Activity is 14.2%.

Q: What about the LD50 at 384 h [10] of the same compound?
A: Its LD50 at 384 h is 537 mg/kg.

Q: What about the Activity (MDA-MB-231 [11]) of the same compound?
A: Its Activity is 3.14%.

Q: And the Activity (MDA-MB-231 [12])?
A: The Activity was “Dose-Dependent Effect”.

Q: What about the inhibition (MDA-MB-231 [13]) of the same compound?
A: The inhibition was “Active”.

Q: What about the viability at 0.111 µM (MDA-MB-231 [14]) of the same compound?
A: Its viability at 0.111 µM is 43.6%.

Q: What about the IC50 at 72 h [15] of the same compound?
A: The IC50 at 72 h was 481 nM.

Q: What about the inhibition (MDA-MB-231 [16]) of the same compound?
A: The inhibition was “Dose-Dependent Effect”.

Q: And the Activity [17]?
A: Its Activity is “inactive”.

Q: What about the viability at 0.333 µM (MDA-MB-231 [18]) of the same compound?
A: The viability at 0.333 µM was 30.8%.

Q: And the Activity (4T1 [19])?
A: Its Activity is “Active”.

Q: And the MRT inf [20]?
A: Its MRT inf is 1.26 h.

Q: What about the IC50 at 72 h [21] of the same compound?
A: Its IC50 at 72 h is 756 nM.

Q: What about the Activity (MDA-MB-231 [22]) of the same compound?
A: The Activity was 71.6%.

Q: And the inhibition in vivo at 25 mg/kg (4T1 [23])?
A: Its inhibition in vivo at 25 mg/kg is 86.1%.

Q: And the Activity (MDA-MB-231 [24])?
A: The Activity was 0.17%.

Q: What about the inhibition (MDA-MB-231 [25]) of the same compound?
A: Its inhibition is “Dose-Dependent Effect”.

Q: What about the Activity (MDA-MB-231 [26]) of the same compound?
A: The Activity was 0%.

Q: And the IC50 at 72 h [27]?
A: The IC50 at 72 h was 498 nM.

Q: And the inhibition (MDA-MB-231 [28])?
A: Its inhibition is “inactive”.

Q: What about the Activity (MDA-MB-231 [29]) of the same compound?
A: Its Activity is 310.56 um.

Q: And the viability at 1 µM (MDA-MB-231 [30])?
A: Its viability at 1 µM is 14.2%.

Q: And the Activity [31]?
A: The Activity was “Non-Toxic”.

Q: What about the Activity [32] of the same compound?
A: The Activity was “Non-Toxic”.

Q: What about the Activity (MDA-MB-231 [33]) of the same compound?
A: The Activity was “inactive”.

Q: What about the inhibition (MDA-MB-231 [34]) of the same compound?
A: The inhibition was “Active”.
